Laboratory results taken from patent US20250041307A1, “Uses of Bicyclic Compounds for the Treatment of Diseases” (Athira Pharma, Inc., priority 2021, published 2025).

Assays:
[1] = tested on: Rat primary cortical neuron cultures; test: Protection from neurotoxicity in vitro (Cell Titer-Glo viability); format: cell-based; parameters: key to Protection of cell viability, statistical significance vs. insult control: NS=not significant; +=p<0.05; ++=p<0.01; +++=p<0.001
Description: HGF/MET signaling activation is expected to protect cells, including neurons, from cell death. […] Hydrogen peroxide (H2O2) treatment produces toxic oxidative stress. Bacteria-derived lipopolysaccharide (LPS) treatment induces inflammatory cell death. Treatment with excess glutamate (Glut) produces excitotoxicity in neuron cultures. Treatment with 1-methyl-4-phenylpyridinium (MPP^+) causes cell death by inhibition of mitochondrial function.
Rat primary cortical neuron cultures were grown at 37° C., 5% CO2 in Complete Neurobasal Medium supplemented with B27/GDNF/BDNF containing 10% FBS until maturity and were then seeded in 384-well plate at 5,000 cells/well. Cultures were then treated for 15 minutes with 1 uM, 100 nM, 10 nM, 1 nM, or 0.1 nM of compound 1a. Cells were then subjected to individual conditional insults for 24 hours at the following concentrations: H2O2 at 1 uM, LPS at 1 uM, glutamate at 25 uM, MPP+ at 500 uM. All treatments contained recombinant human HGF (R&D Systems) at a concentration of 5 ng/ml.
To quantify neuroprotection, cell viability was measured with the Cell Titer-Glo Luminescent Cell Viability Assay (Promega, Cat #G7571). Data was normalized to DMSO+HGF control set at 100% cell viability. Statistical analyses for each group (n=4) were performed using one-way ANOVA with Tukey's Multiple comparison test.
Data is reported as statistical significance vs. insult control, with NS=not significant, +=p<0.05, ++=p<0.01, and +++=p<0.001.

[2] = tested on: scopolamine-induced cognitive impairment; test: Scopolamine-induced cognitive impairment, T-maze spontaneous alternation task; format: in vivo, CD-1 mice; parameters: key to Significance (compared to scopolamine only): * = p < 0.05; ** = p < 0.01; ns = not significant; details: mice; for Spontaneous alternations %: scopolamine 0.89 mg/kg; for Significance (compared to scopolamine only): spontaneous alternations
Excerpt: Mild cognitive impairment can be assessed in rodent models via delivery of various compounds that interfere with normal neurotransmitter signaling. Scopolamine is a compound that is well-known to antagonize muscarinic acetylcholine receptors, nicotinic receptors, as well as glutamatergic receptors such as NMDA receptors. Thus, delivery of scopolamine results in cognitive impairment, which can be assessed in a variety of cognitive tasks. Positive modulation of the HGF/MET system can promote NMDA receptor activation and results in pro-cognitive effects. Two test compounds, Compound 1a and Compound 5a, were evaluated for their ability to protect against scopolamine-induced cognitive impairment.
In this study, mild cognitive impairment was modeled in otherwise healthy male CD-1 mice (4-5 weeks old at study start) by acute delivery of 0.89 mg/kg scopolamine (dissolved in saline). Test compounds were administered via oral gavage 0.5 hours prior to scopolamine exposure, and cognitive performance was assessed in the T-maze spontaneous alternation task 0.5 hours after scopolamine exposure (1 hour following test compound exposure). The experimental protocol consisted of one single session, which started with 1 “forced-choice” trial, followed by 14 “free-choice” trials. In the first “forced-choice” trial, the animal was confined 5 seconds in the start arm and was then released while either the left or right goal arm was blocked by a horizontal door. After the mouse entered the open goal arm and returned to the start position, the left or right goal door was opened, and the animal was allowed to choose freely between the left and right goal arm (“free choice trials”). The animal was considered to have entered into an arm when it placed its four paws in the arm. Normal animals will choose to explore the previously-unexplored arm, which is recorded as a spontaneous alternation. […] The session was terminated, and the animal was removed from the maze as soon as 14 free-choice trials had been performed or 10 min had elapsed, whichever event occurred first.
This percentage was defined as entry into a different goal arm of the T maze over successive trials (e.g., left-right-left-right) and was calculated using the formula: (% alternations=Number of Alternations/14*100). Both compounds attenuated the degree of scopolamine-induced cognitive impairment, as indicated by increased percent of spontaneous alternations compared to scopolamine-only controls. Statistical analysis was accomplished via 1-way ANOVA with Dunnet's multiple comparisons post-test.

CCC(C)CN1CC2N(C(=O)c3ccc(C(F)(F)F)cc3)CCC(=O)N2[C@@H](C)C1=O (some centres unmarked) [Compound 1a]
Neuroprotective effect on rat neurons in culture ([1]; broad range of concentrations, entire cohort of insults tested): effective neuroprotective treatment
Protection of cell viability, statistical significance vs. insult control ([1]; insult Glutamate (25 uM) 24 hours, 0.1 nM + HGF (5 ng/ml)): +++ (+++=p<0.001)
Protection of cell viability, statistical significance vs. insult control ([1]; insult Glutamate (25 uM) 24 hours, 1 nM + HGF (5 ng/ml)): +++ (+++=p<0.001)
Protection of cell viability, statistical significance vs. insult control ([1]; insult Glutamate (25 uM) 24 hours, 100 nM (first column so headed) + HGF (5 ng/ml)): +++ (+++=p<0.001)
Protection of cell viability, statistical significance vs. insult control ([1]; insult Glutamate (25 uM) 24 hours, 100 nM (second column so headed) + HGF (5 ng/ml)): +++ (+++=p<0.001)
Protection of cell viability, statistical significance vs. insult control ([1]; insult Glutamate (25 uM) 24 hours, 1 uM + HGF (5 ng/ml)): +++ (+++=p<0.001)
Protection of cell viability, statistical significance vs. insult control ([1]; insult H2O2 (1 uM) 24 hours, 0.1 nM + HGF (5 ng/ml)): +++ (+++=p<0.001)
Protection of cell viability, statistical significance vs. insult control ([1]; insult H2O2 (1 uM) 24 hours, 1 nM + HGF (5 ng/ml)): +++ (+++=p<0.001)
Protection of cell viability, statistical significance vs. insult control ([1]; insult H2O2 (1 uM) 24 hours, 100 nM (first column so headed) + HGF (5 ng/ml)): +++ (+++=p<0.001)
Protection of cell viability, statistical significance vs. insult control ([1]; insult H2O2 (1 uM) 24 hours, 100 nM (second column so headed) + HGF (5 ng/ml)): +++ (+++=p<0.001)
Protection of cell viability, statistical significance vs. insult control ([1]; insult H2O2 (1 uM) 24 hours, 1 uM + HGF (5 ng/ml)): +++ (+++=p<0.001)
Protection of cell viability, statistical significance vs. insult control ([1]; insult LPS (1 uM) 24 hours, 0.1 nM + HGF (5 ng/ml)): +++ (+++=p<0.001)
Protection of cell viability, statistical significance vs. insult control ([1]; insult LPS (1 uM) 24 hours, 1 nM + HGF (5 ng/ml)): NS
Protection of cell viability, statistical significance vs. insult control ([1]; insult LPS (1 uM) 24 hours, 100 nM (first column so headed) + HGF (5 ng/ml)): +++ (+++=p<0.001)
Protection of cell viability, statistical significance vs. insult control ([1]; insult LPS (1 uM) 24 hours, 100 nM (second column so headed) + HGF (5 ng/ml)): +++ (+++=p<0.001)
Protection of cell viability, statistical significance vs. insult control ([1]; insult LPS (1 uM) 24 hours, 1 uM + HGF (5 ng/ml)): +++ (+++=p<0.001)
Protection of cell viability, statistical significance vs. insult control ([1]; insult MPP+ (500 uM) 24 hours, 0.1 nM + HGF (5 ng/ml)): +++ (+++=p<0.001)
Protection of cell viability, statistical significance vs. insult control ([1]; insult MPP+ (500 uM) 24 hours, 1 nM + HGF (5 ng/ml)): +++ (+++=p<0.001)
Protection of cell viability, statistical significance vs. insult control ([1]; insult MPP+ (500 uM) 24 hours, 100 nM (first column so headed) + HGF (5 ng/ml)): +++ (+++=p<0.001)
Protection of cell viability, statistical significance vs. insult control ([1]; insult MPP+ (500 uM) 24 hours, 100 nM (second column so headed) + HGF (5 ng/ml)): +++ (+++=p<0.001)
Protection of cell viability, statistical significance vs. insult control ([1]; insult MPP+ (500 uM) 24 hours, 1 uM + HGF (5 ng/ml)): +++ (+++=p<0.001)
Spontaneous alternations % ([2]; 0.5 mg/kg via PO): 52%
Significance (compared to scopolamine only) ([2]; 0.5 mg/kg via PO): ** (** = p < 0.01)
Spontaneous alternations % ([2]; 2 mg/kg via PO): 55%
Significance (compared to scopolamine only) ([2]; 2 mg/kg via PO): ** (** = p < 0.01)
Spontaneous alternations % ([2]; 8 mg/kg via PO): 47%
Significance (compared to scopolamine only) ([2]; 8 mg/kg via PO): ns
Spontaneous alternations % ([2]; 16 mg/kg via PO): 51%
Significance (compared to scopolamine only) ([2]; 16 mg/kg via PO): * (* = p < 0.05)
Spontaneous alternations % ([2]; 32 mg/kg via PO): 55%
Significance (compared to scopolamine only) ([2]; 32 mg/kg via PO): ** (** = p < 0.01)

CCC(C)CN1CC2N(Cc3ccc(C(F)(F)F)cc3)CCC(=O)N2[C@@H](C)C1=O (some centres unmarked) [Compound 5a]
Spontaneous alternations % ([2]; 1.25 mg/kg via PO): 51%
Significance (compared to scopolamine only) ([2]; 1.25 mg/kg via PO): * (* = p < 0.05)
Spontaneous alternations % ([2]; 2.5 mg/kg via PO): 57%
Significance (compared to scopolamine only) ([2]; 2.5 mg/kg via PO): ** (** = p < 0.01)
Spontaneous alternations % ([2]; 5 mg/kg via PO): 52%
Significance (compared to scopolamine only) ([2]; 5 mg/kg via PO): * (* = p < 0.05)
Spontaneous alternations % ([2]; 10 mg/kg via PO): 55%
Significance (compared to scopolamine only) ([2]; 10 mg/kg via PO): ** (** = p < 0.01)
Spontaneous alternations % ([2]; 20 mg/kg via PO): 52%
Significance (compared to scopolamine only) ([2]; 20 mg/kg via PO): * (* = p < 0.05)
